# Patent US8563683B2, “Synthetic lung surfactant and use thereof” (University of Rochester, priority 2006, dated 2013)
# pKd: −log10 of the molar value.
# Assays:
# [1] = Surface activity on pulsating bubble surfactometer (minimum surface tension); assay type: physicochemical; conditions: 37° C., 20 cycles/min, 50% area compression, lipid […] except SLM (1.0 mg/ml)
# Experimental: Surfactant compositions were formulated using various molar or wt ratios of lipid analogs or naturally occurring lipids, with the addition of native lung surface proteins or synthetic peptides, and optionally a saturated free fatty acid in the indicated wt percentage based on the total weight of the intermediate lipid formulation. Surfactant compositions were dispersed in 0.15M NaCl+2 mM CaCl2 and placed in a sample chamber mounted on the pulsator unit of a bubble surfactometer. All surfactants were studied at a lipid concentration of 2.5 mg/ml, and in addition a mixture of synthetic ester-linked phospholipids (SLM) plus Super Mini-B was studied at a lipid concentration of 1 mg/ml.
# A tiny air bubble was formed and pulsated between maximum and minimum radii of 0.55 and 0.4 mm, respectively, while the pressure drop across the air-water interface of the bubble was measured with a precision transducer. Surface tension was calculated from the measured pressure drop at minimum radius (0.4 mm) from the Laplace equation (Enhorning, “Pulsating Bubble Technique for Evaluation of Pulmonary Surfactant,” J Appl Physiol 43:198-203 (1977); Hall et al., “Approximations in the Measurement of Surface Tension with the Oscillating Bubble Surfactometer,” J Appl Physiol 75:468-477 (1993), each of which is hereby incorporated by reference in its entirety).
# The high surface activity of synthetic lung surfactants containing DEPN-8 or 9:1 DEPN-8:PG-A or 9:1 DEPN-8:PG-B plus 1.5% by weight of Mini-B, FK20, or F4K is shown in Table 1. Activity is also shown for mixtures containing two glycerophospholipids found in endogenous lung surfactant, 8:2 (molar ratio) dipalmitoyl phosphatidylcholine (DPPC) and palmitoyl-oleoyl phosphatidylglycerol (POPG), with or without added synthetic peptides. Also studied is a synthetic lipid mixture containing 16:10:6:1:2 (by weight) DPPC, palmitoyl-oleoyl-phosphatidylcholine (POPC), POPG, palmitoyl-oleoyl-phosphatidylethanolamine (POPE), and cholesterol combined with Super Mini B (SEQ ID NO: 13). The surface activity of DEPN-8+1.5% bovine SP-B/C (mixture of bovine surfactant proteins B/C purified on a column from extracted calf lung surfactant) is additionally shown as a positive control. As described in the preceding paragraph, the surface activity measurements in Table 1 were obtained with a pulsating bubble surfactometer in vitro. Measurements of surface activity on this instrument reflect the combined effects of adsorption and dynamic film compression at a cycling rate (20 cycles/min), temperature (37° C.), and area compression (50% compression from maximum to minimum area) relevant for the mammalian lungs in vivo (Notter, Lung Surfactants: Basic Science and Clinical Applications, Marcel Dekker, Inc, New York (2000); Enhorning, “Pulsating Bubble Technique for Evaluation of Pulmonary Surfactant,” J Appl Physiol 43:198-203 (1977); Notter et al., “Pulmonary Surfactant: Physical Chemistry, Physiology and Replacement,” Rev Chem Eng 13:1-118 (1997), each of which is hereby incorporated by reference in its entirety). Prior publications have shown that assessments of surface activity on the bubble apparatus correlate well with the physiological activity of exogenous surfactants in animal lungs (see Notter, Lung Surfactants: Basic Science and Clinical Applications, Marcel Dekker, Inc, New York (2000); Notter et al., “Pulmonary Surfactant: Physical Chemistry, Physiology and Replacement,” Rev Chem Eng 13:1-118 (1997); Holm et al., “Effects of Hemoglobin and Cell Membrane Lipids on Pulmonary Surfactant Activity,” J Appl Physiol 63:1434-1442 (1987), each of which is hereby incorporated by reference in its entirety). […] The activity of these surfactant formulations of the present invention also approached or exceeded the positive control DEPN-8+1.5% bovine SP-B/C. […]
# DEPN-8 = assay: Plasmon resonance (Biacore 3000) binding of lipid liposomes to peptide film; conditions: DEPN-8 liposomes over peptide film on CM5 chip, 37° C.; read-out: dissociation constant KD (koff/kon)
# Experimental: (§1) Super Mini-B peptide was also characterized in terms of its binding (association) affinity for lipids by plasmon resonance using a Biacore 3000 system (Biacore, Uppsala, Sweden). Peptide self-films were chemically-linked using a CM5 sensor chip (BR-1000-14, research grade), and lipid liposomes in running buffer were flowed over the chip to determine the degree of specific lipid association with the peptide film at 37° C. The off and on rates and dissociation constant KD (KD=koff/kon) were calculated by BIAevaluation Software Version 4.1.
# [2] = target: dipalmitoyl phosphatidylcholine (DPPC); assay: as above; conditions: DPPC liposomes over peptide film on CM5 chip, 37° C.; read-out: dissociation constant KD (koff/kon)
# Experimental: as §1
Surface tension at minimum bubble radius at time 0.5 min ([1]; 0.5 min pulsation) [mN/m],Surface tension at minimum bubble radius at time 1 min ([1]; 1 min pulsation) [mN/m],Surface tension at minimum bubble radius at time 2 min ([1]; 2 min pulsation) [mN/m],Surface tension at minimum bubble radius at time 5 min ([1]; 5 min pulsation) [mN/m],Surface tension at minimum bubble radius at time 10 min ([1]; 10 min pulsation) [mN/m],Surface tension at minimum bubble radius at time 15 min ([1]; 15 min pulsation) [mN/m],Surface tension at minimum bubble radius at time […] ([1]; […] pulsation) [mN/m],pKd (DEPN-8),pKd [2],Molecule
27 ± 2,21 ± 2,14 ± 2,6 ± 1,2 ± 1,<1,32 ± 2,–,–,"CCCCCCCCCCCCCCCCOCC(COP(=O)(O)CCC[N+](C)(C)C)OCCCCCCCCCCCCCCCC (racemic) [DEPN-8, [(±)-trimethyl(3-phosphonopropyl)ammonium, mono(2,3-bis(hexadecyloxy)propyl ester]]"
–,–,–,–,–,–,–,7.20,6.11,FPIPLPYCWLCRALIKRIQAMIPKGGRMLPQLVCRLVLRCS [Super Mini-B]
